Results reported in patent US20180148418A1, “AMIDO-SUBSTITUTED CYCLOHEXANE DERIVATIVES” (Bayer Pharma Aktiengesellschaft, priority 2015, published 2018).
Where a name gives a salt, the structure may show the parent alone.

Assays:
[1] = tested on: wildtype Wnt signaling cascade; assay: HEK293 TOP assay (Super TopFlash luciferase reporter, Wnt-3a stimulated); assay type: cell-based; settings: Homo sapiens, HEK293, 16 h, HEK293 TOP reporter cells, Wnt3a at EC50, 16 hours
Method in brief: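 Compound series (50 μM down to 15 nM, 3.16-fold) diluted from DMSO 50-fold into CAFTY buffer, pH 7.4, 2 mM Ca^2+, 0.01% BSA, applied to Wnt-3a-stimulated HEK293 TopFlash and FOP reporter lines in parallel. Cells seeded 10000/well 24 h before; luciferase signal measured.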

TNKS1 = target: T1, TNKS1 (Homo sapiens, UniProt O95271); assay: TNKS1 Assay B (auto-parsylation, [3H]-NAD+ SPA); assay type: biochemical; settings: 6 nM TNKS1, auto-parsylation, over night at room temperature
T1 construct: purchased BPS Bioscience, San Diego, USA 80579 (TNKS1 Histone Ribosylation Assay Kit)
T1 sequence (O95271 1-1327): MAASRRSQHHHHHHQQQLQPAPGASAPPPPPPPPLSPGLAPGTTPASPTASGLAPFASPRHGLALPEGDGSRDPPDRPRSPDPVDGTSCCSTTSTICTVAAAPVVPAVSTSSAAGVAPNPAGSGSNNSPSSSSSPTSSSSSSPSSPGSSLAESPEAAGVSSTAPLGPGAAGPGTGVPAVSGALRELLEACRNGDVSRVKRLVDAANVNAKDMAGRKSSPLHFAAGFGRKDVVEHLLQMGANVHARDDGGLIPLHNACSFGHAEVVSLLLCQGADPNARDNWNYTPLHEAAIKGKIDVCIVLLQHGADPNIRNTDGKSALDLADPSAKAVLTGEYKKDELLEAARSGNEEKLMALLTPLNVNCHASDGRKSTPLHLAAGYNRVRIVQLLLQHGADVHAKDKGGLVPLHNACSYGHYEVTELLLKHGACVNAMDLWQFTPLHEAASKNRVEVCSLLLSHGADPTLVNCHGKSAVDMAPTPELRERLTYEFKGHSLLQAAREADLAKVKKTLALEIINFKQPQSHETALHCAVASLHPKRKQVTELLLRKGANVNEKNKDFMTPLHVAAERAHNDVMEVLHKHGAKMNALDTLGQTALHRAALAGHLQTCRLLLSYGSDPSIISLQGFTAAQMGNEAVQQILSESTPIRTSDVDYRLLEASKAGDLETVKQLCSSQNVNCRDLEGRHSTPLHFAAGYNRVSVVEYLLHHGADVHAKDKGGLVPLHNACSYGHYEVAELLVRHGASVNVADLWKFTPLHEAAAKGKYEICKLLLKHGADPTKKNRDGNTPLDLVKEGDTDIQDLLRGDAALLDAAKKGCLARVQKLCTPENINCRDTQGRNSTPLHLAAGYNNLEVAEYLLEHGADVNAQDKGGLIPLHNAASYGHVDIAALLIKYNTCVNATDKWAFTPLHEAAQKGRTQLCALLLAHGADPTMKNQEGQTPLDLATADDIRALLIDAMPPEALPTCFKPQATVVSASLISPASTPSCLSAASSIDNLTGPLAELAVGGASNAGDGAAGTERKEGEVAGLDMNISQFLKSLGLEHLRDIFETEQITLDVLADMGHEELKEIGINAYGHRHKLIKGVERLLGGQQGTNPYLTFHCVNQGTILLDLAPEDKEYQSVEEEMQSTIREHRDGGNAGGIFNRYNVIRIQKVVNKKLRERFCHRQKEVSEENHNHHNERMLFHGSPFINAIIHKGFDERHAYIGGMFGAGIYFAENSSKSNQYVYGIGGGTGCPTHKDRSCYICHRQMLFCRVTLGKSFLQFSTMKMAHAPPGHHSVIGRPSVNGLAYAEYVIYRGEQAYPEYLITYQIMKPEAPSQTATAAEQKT

SMILES: Cc1cc(C)n2ncc(C(=O)N[C@H]3CC[C@]4(CCN(c5ccc(F)cc5)C4=O)CC3)c2n1 [Example 208, N-[(cis)-2-(4-fluorophenyl)-1-oxo-2-azaspiro[4.5]dec-8-yl]-5,7-dimethyl pyrazolo[1,5-a]pyrimidine-3-carboxamide]
- IC50 [1]: 660 nM
- IC50 (TNKS1): 5600 nM

SMILES: O=C(N[C@H]1CC[C@@]2(CCN(c3ccc(F)cc3)C2=O)CC1)c1cnn2cccnc12 [Example 209, N-[(trans)-2-(4-fluorophenyl)-1-oxo-2-azaspiro[4.5]dec-8-yl]pyrazolo[1,5-a]pyrimidine-3-carboxamide]
- IC50 [1]: 99 nM
- IC50 (TNKS1): 1200 nM

SMILES: Cc1cnc2c(C(=O)N[C@H]3CC[C@@]4(CCN(c5ccc(F)cc5)C4=O)CC3)cnn2c1 [Example 210, N-[(trans)-2-(4-fluorophenyl)-1-oxo-2-azaspiro[4.5]dec-8-yl]-6-methylpyrazolo[1,5-a]pyrimidine-3-carboxamide]
- IC50 [1]: 280 nM
- IC50 (TNKS1): 390 nM

SMILES: Cc1cc(C)n2ncc(C(=O)N[C@H]3CC[C@@]4(CCN(c5ccc(F)cc5)C4=O)CC3)c2n1 [Example 211, N-[(trans)-2-(4-fluorophenyl)-1-oxo-2-azaspiro[4.5]dec-8-yl]-5,7-di methyl pyrazolo[1,5-a]pyrimidine-3-carboxamide]
- IC50 [1]: 270 nM
- IC50 (TNKS1): 430 nM

SMILES: CNC(=O)c1[nH]cnc1C(=O)N[C@H]1CC[C@@]2(CCN(c3ccc(F)cc3)C2=O)CC1 [Example 212, N^4-[(trans)-2-(4-fluorophenyl)-1-oxo-2-azaspiro[4.5]dec-8-yl]-N^5-methyl-1H-imidazole-4,5-dicarboxamide]
- IC50 [1]: 88 nM
- IC50 (TNKS1): 560 nM

SMILES: CCNC(=O)c1[nH]cnc1C(=O)N[C@H]1CC[C@@]2(CCN(c3ccc(F)cc3)C2=O)CC1 [Example 213, N^5-ethyl-N^4-[(trans)-2-(4-fluorophenyl)-1-oxo-2-azaspiro[4.5]dec-8-yl]-1H-imidazole-4,5-dicarboxamide]
- IC50 [1]: 140 nM
- IC50 (TNKS1): 340 nM

SMILES: O=C(N[C@H]1CC[C@@]2(CCN(c3ccc(F)cc3Cl)C2=O)CC1)c1cnn2cc(CCO)cnc12 [Example 214, N-[(trans)-2-(2-chloro-4-fluorophenyl)-1-oxo-2-azaspiro[4.5]dec-8-yl]-6-(2-hydroxyethyl)pyrazolo[1,5-a]pyrimidine-3-carboxamide]
- IC50 [1]: 16 nM
- IC50 (TNKS1): 12 nM

SMILES: CNc1ccn2ncc(C(=O)N[C@H]3CC[C@@]4(CCN(c5ccc(F)cc5Cl)C4=O)CC3)c2n1 [Example 215, N-[(trans)-2-(2-chloro-4-fluorophenyl)-1-oxo-2-azaspiro[4.5]dec-8-yl]-5-(methylamino)pyrazolo[1,5-a]pyrimidine-3-carboxamide]
- IC50 [1]: 5.5 nM
- IC50 (TNKS1): 7.5 nM

SMILES: Cc1nn2cccnc2c1C(=O)N[C@H]1CC[C@@]2(CCN(c3ccc(F)cc3Cl)C2=O)CC1 [Example 216, N-[(trans)-2-(2-chloro-4-fluorophenyl)-1-oxo-2-azaspiro[4.5]dec-8-yl]-2-methylpyrazolo[1,5-a]pyrimidine-3-carboxamide]
- IC50 [1]: 71 nM
- IC50 (TNKS1): 570 nM

SMILES: CN(C)c1ccn2ncc(C(=O)N[C@H]3CC[C@@]4(CCN(c5ccc(F)cc5Cl)C4=O)CC3)c2n1 [Example 217, N-[(trans)-2-(2-chloro-4-fluorophenyl)-1-oxo-2-azaspiro[4.5]dec-8-yl]-5-(dimethylamino)pyrazolo[1,5-a]pyrimidine-3-carboxamide]
- IC50 [1]: 3.7 nM
- IC50 (TNKS1): 6.1 nM

SMILES: COc1ccn2ncc(C(=O)N[C@H]3CC[C@@]4(CCN(c5ccc(F)cc5Cl)C4=O)CC3)c2n1 [Example 218, N-[(trans)-2-(2-chloro-4-fluorophenyl)-1-oxo-2-azaspiro[4.5]dec-8-yl]-5-methoxypyrazolo[1,5-a]pyrimidine-3-carboxamide]
- IC50 [1]: 16 nM
- IC50 (TNKS1): 14 nM

SMILES: Cc1ccn2ncc(C(=O)N[C@H]3CC[C@@]4(CCN(c5ccc(F)cc5Cl)C4=O)CC3)c2n1 [Example 221, N-[(trans)-2-(2-chloro-4-fluorophenyl)-1-oxo-2-azaspiro[4.5]dec-8-yl]-5-methylpyrazolo[1,5-a]pyrimidine-3-carboxamide]
- IC50 [1]: 1.5 nM
- IC50 (TNKS1): 11 nM

SMILES: Cc1ccnc2c(C(=O)N[C@H]3CC[C@@]4(CCN(c5ccc(F)cc5Cl)C4=O)CC3)cnn12 [Example 222, N-[(trans)-2-(2-chloro-4-fluorophenyl)-1-oxo-2-azaspiro[4.5]dec-8-yl]-7-methylpyrazolo[1,5-a]pyrimidine-3-carboxamide]
- IC50 [1]: 2.1 nM
- IC50 (TNKS1): 13 nM

SMILES: Cc1cc(C(F)F)n2ncc(C(=O)N[C@H]3CC[C@@]4(CCN(c5ccc(F)cc5Cl)C4=O)CC3)c2n1 [Example 224, N-[(trans)-2-(2-chloro-4-fluorophenyl)-1-oxo-2-azaspiro[4.5]dec-8-yl]-7-(difluoromethyl)-5-methylpyrazolo[1,5-a]pyrimidine-3-carboxamide]
- IC50 [1]: 0.83 nM
- IC50 (TNKS1): 14 nM

SMILES: CC(C)(C)OC(=O)N1CCN(c2ccn3ncc(C(=O)N[C@H]4CC[C@@]5(CCN(c6ccc(F)cc6Cl)C5=O)CC4)c3n2)CC1 [Example 225, tert-butyl 4-(3-{[(trans)-2-(2-chloro-4-fluorophenyl)-1-oxo-2-azaspiro[4.5]dec-8-yl]carbamoyl}pyrazolo[1,5-a]pyrimidin-5-yl)piperazine-1-carboxylate]
- IC50 [1]: 59 nM
- IC50 (TNKS1): 6 nM

SMILES: O=C(N[C@H]1CC[C@@]2(CCN(c3ccc(F)cc3Cl)C2=O)CC1)c1cnn2ccc(N3CCNCC3)nc12 [Example 226, N-[(trans)-2-(2-chloro-4-fluorophenyl)-1-oxo-2-azaspiro[4.5]dec-8-yl]-5-(piperazin-1-yl)pyrazolo[1,5-a]pyrimidine-3-carboxamide hydrochloric acid salt]
- IC50 [1]: 32 nM
- IC50 (TNKS1): 8.2 nM

SMILES: O=C(N[C@H]1CC[C@@]2(CCN(c3ccc(F)cc3Cl)C2=O)CC1)c1cnn2ccc(N3CCCC3)nc12 [Example 232, N-[(trans)-2-(2-chloro-4-fluorophenyl)-1-oxo-2-azaspiro[4.5]dec-8-yl]-5-(pyrrolidin-1-yl)pyrazolo[1,5-a]pyrimidine-3-carboxamide]
- IC50 [1]: 6.4 nM
- IC50 (TNKS1): 8.5 nM

SMILES: O=C(N[C@H]1CC[C@@]2(CCN(c3ccc(F)cc3Cl)C2=O)CC1)c1cnn2c(C(F)(F)F)ccnc12 [Example 233, N-[(trans)-2-(2-chloro-4-fluorophenyl)-1-oxo-2-azaspiro[4.5]dec-8-yl]-7-(trifluoromethyl)pyrazolo[1,5-a]pyrimidine-3-carboxamide]
- IC50 [1]: 9 nM
- IC50 (TNKS1): 71 nM

SMILES: O=C(N[C@H]1CC[C@@]2(CCN(c3ccccc3Cl)C2=O)CC1)c1cnn2cccnc12 [Example 256, N-[(trans)-2-(2-chlorophenyl)-1-oxo-2-azaspiro[4.5]dec-8-yl]pyrazolo[1,5-a]pyrimidine-3-carboxamide]
- IC50 [1]: 2.3 nM
- IC50 (TNKS1): 12 nM

SMILES: Cc1cc(C)n2ncc(C(=O)N[C@H]3CC[C@@]4(CCN(c5ccccc5Cl)C4=O)CC3)c2n1 [Example 257, N-[(trans)-2-(2-chlorophenyl)-1-oxo-2-azaspiro[4.5]dec-8-yl]-5,7-dimethylpyrazolo[1,5-a]pyrimidine-3-carboxamide]
- IC50 [1]: 1.4 nM
- IC50 (TNKS1): 10 nM

SMILES: CCNC(=O)c1nc[nH]c1C(=O)N[C@H]1CC[C@@]2(CCN(c3ccccc3Cl)C2=O)CC1 [Example 258, N^5-[(trans)-2-(2-chlorophenyl)-1-oxo-2-azaspiro[4.5]dec-8-yl]-N^4-ethyl-1H-imidazole-4,5-dicarboxamide]
- IC50 [1]: 2.3 nM
- IC50 (TNKS1): 13 nM

SMILES: COCCNC(=O)c1nc[nH]c1C(=O)N[C@H]1CC[C@@]2(CCN(c3ccccc3Cl)C2=O)CC1 [Example 259, N^5-[(trans)-2-(2-chlorophenyl)-1-oxo-2-azaspiro[4.5]dec-8-yl]-N^4-(2-methoxyethyl)-1H-imidazole-4,5-dicarboxamide]
- IC50 [1]: 8.6 nM
- IC50 (TNKS1): 12 nM
